Tests used:
Test in all cases: radiometric filter-binding kinase assay, Kinase HotSpot
Conditions in all cases: compound 0.5 µM; ATP 10 µM
ADRBK1 (human) = ADRBK1 (human) (UniProt P25098)
BRSK2 (human) = BRSK2 (human) (UniProt Q8IWQ3)
BTK (human) = BTK (human) (UniProt Q06187)
CAMK1 (human) = CAMK1 (human) (UniProt Q14012)
CAMK1D (human) = CAMK1D (human) (UniProt Q8IU85)
CDC42BPA (human) = CDC42BPA (human) (UniProt Q5VT25)
CDK1 CCNA2 (human) = CDK1 CCNA2 (human) (UniProt P06493+P20248)
CDK1 CCNB1 (human) = CDK1 CCNB1 (human) (UniProt P06493+P14635)
CDK4 CCND3 (human) = CDK4 CCND3 (human) (UniProt P30281+P11802)
CDK6 CCND3 (human) = CDK6 CCND3 (human) (UniProt P30281+Q00534)
CDK9 CCNT1 (human) = CDK9 CCNT1 (human) (UniProt P50750+O60563)
CSNK1G2 (human) = CSNK1G2 (human) (UniProt P78368)
CSNK1G3 (human) = CSNK1G3 (human) (UniProt Q9Y6M4)
EPHA5 (human) = EPHA5 (human) (UniProt P54756)
FGFR2 (human) = FGFR2 (human) (UniProt P21802)
GRK5 (human) = GRK5 (human) (UniProt P34947)
HCK (human) = HCK (human) (UniProt P08631)
HIPK3 (human) = HIPK3 (human) (UniProt Q9H422)
Sequence of HIPK3 (human) (Q9H422 whole entry, looked up): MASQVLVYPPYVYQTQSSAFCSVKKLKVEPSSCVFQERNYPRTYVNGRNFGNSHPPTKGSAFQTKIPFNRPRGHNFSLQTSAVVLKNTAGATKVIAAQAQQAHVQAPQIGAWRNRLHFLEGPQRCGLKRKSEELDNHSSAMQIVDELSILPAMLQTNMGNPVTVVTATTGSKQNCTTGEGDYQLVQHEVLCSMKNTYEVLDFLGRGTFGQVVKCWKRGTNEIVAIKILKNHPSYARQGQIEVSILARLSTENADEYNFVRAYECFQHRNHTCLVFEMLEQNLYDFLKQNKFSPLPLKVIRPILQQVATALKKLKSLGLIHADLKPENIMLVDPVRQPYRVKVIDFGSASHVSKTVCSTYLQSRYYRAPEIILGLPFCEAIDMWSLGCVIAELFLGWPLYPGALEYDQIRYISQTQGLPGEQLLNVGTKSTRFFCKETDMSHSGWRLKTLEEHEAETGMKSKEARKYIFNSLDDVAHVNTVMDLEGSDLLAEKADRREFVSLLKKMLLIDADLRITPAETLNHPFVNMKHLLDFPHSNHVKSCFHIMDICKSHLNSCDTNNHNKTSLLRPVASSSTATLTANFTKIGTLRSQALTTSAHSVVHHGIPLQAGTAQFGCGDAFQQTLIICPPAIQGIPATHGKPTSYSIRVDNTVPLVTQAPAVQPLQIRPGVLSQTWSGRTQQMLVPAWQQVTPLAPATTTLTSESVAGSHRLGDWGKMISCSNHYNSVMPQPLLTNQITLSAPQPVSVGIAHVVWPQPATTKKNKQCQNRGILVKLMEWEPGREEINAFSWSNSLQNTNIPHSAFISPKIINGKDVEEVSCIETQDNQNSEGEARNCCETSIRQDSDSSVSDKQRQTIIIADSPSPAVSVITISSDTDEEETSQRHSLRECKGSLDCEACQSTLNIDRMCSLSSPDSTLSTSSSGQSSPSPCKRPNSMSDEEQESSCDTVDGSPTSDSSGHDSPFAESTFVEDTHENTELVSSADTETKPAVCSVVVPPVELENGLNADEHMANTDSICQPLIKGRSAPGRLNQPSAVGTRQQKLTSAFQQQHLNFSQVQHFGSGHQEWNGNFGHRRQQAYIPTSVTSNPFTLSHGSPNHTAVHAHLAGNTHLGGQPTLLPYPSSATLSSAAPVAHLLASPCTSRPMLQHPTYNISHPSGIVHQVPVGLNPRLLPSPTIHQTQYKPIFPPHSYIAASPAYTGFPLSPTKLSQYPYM

IGF1R (human) = IGF1R (human) (UniProt P08069)
INSR (human) = INSR (human) (UniProt P06213)
MAP3K14 (human) = MAP3K14 (human) (UniProt Q99558)
MATK (human) = MATK (human) (UniProt P42679)
Sequence of MATK (human) (P42679 whole entry, looked up): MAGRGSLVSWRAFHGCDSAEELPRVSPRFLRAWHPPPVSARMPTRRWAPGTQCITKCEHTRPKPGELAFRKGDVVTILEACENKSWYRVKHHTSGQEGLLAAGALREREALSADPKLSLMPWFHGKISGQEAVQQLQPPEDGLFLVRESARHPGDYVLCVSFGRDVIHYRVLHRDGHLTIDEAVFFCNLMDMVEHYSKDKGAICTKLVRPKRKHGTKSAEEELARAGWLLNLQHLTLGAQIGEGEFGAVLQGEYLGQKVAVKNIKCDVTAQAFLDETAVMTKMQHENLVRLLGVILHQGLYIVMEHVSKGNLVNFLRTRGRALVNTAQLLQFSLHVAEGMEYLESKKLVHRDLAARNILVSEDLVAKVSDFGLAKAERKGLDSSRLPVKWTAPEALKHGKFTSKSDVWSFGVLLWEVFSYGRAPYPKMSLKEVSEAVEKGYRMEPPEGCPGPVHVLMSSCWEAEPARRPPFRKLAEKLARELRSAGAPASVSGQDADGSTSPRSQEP

NTRK2 (human) = NTRK2 (human) (UniProt Q16620)
PAK3 (human) = PAK3 (human) (UniProt O75914)
PKN1 (human) = PKN1 (human) (UniProt Q16512)
PLK1 (human) = PLK1 (human) (UniProt P53350)
PLK3 (human) = PLK3 (human) (UniProt Q9H4B4)
PRKCI (human) = PRKCI (human) (UniProt P41743)
[1] = system: PRKCQ (human), Q04759 [P330L]
PRKX (human) = PRKX (human) (UniProt P51817)
RPS6KA5 KD2 (human) = RPS6KA5 KD2 (human) (UniProt O75582)
SIK2 (human) = SIK2 (human) (UniProt Q9H0K1)
Sequence of SIK2 (human) (Q9H0K1 whole entry, looked up): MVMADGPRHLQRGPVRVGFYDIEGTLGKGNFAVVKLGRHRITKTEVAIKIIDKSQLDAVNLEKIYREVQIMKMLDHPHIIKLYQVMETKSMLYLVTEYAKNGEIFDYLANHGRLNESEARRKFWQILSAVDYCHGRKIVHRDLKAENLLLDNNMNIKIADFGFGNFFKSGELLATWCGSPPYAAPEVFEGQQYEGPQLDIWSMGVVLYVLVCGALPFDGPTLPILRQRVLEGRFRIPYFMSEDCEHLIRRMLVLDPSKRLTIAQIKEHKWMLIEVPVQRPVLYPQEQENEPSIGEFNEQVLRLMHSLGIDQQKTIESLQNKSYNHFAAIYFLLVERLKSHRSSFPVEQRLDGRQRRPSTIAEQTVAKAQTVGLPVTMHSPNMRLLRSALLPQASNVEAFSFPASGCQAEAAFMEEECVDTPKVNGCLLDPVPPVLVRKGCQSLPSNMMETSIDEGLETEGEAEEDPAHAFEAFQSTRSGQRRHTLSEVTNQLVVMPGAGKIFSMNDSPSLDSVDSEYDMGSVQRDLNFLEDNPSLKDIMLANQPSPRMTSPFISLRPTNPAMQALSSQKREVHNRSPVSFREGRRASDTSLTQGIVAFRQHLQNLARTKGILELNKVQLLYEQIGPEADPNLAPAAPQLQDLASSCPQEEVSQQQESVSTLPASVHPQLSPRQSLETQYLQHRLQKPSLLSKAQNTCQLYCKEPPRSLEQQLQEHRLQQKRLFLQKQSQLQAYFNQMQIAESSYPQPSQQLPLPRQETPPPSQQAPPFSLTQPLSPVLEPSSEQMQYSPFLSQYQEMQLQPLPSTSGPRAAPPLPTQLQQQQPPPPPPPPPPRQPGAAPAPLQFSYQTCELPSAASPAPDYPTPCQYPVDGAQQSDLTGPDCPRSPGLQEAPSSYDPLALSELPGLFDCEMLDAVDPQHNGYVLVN

SLK (human) = SLK (human) (UniProt Q9H2G2)
SRPK3 (human) = SRPK3 (human) (UniProt Q9UPE1)
Sequence of SRPK3 (human) (Q9UPE1 whole entry, looked up): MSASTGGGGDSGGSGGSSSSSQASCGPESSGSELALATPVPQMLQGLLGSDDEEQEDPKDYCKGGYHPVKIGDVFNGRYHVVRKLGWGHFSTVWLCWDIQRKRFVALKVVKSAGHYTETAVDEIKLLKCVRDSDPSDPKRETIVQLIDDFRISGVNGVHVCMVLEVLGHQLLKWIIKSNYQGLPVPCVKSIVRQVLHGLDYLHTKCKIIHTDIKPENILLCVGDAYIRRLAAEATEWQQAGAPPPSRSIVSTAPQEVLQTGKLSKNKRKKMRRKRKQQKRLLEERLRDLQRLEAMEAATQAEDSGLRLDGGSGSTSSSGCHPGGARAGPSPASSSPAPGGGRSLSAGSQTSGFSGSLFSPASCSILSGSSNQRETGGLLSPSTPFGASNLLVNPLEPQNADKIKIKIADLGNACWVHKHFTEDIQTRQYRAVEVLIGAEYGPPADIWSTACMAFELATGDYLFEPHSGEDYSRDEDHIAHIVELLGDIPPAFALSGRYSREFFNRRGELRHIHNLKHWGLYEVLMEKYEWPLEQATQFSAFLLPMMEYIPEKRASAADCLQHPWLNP

STK17A (human) = STK17A (human) (UniProt Q9UEE5)
STK33 (human) = STK33 (human) (UniProt Q9BYT3)
SYK (human) = SYK (human) (UniProt P43405)
TAOK1 (human) = TAOK1 (human) (UniProt Q7L7X3)
Sequence of TAOK1 (human) (Q7L7X3 whole entry, looked up): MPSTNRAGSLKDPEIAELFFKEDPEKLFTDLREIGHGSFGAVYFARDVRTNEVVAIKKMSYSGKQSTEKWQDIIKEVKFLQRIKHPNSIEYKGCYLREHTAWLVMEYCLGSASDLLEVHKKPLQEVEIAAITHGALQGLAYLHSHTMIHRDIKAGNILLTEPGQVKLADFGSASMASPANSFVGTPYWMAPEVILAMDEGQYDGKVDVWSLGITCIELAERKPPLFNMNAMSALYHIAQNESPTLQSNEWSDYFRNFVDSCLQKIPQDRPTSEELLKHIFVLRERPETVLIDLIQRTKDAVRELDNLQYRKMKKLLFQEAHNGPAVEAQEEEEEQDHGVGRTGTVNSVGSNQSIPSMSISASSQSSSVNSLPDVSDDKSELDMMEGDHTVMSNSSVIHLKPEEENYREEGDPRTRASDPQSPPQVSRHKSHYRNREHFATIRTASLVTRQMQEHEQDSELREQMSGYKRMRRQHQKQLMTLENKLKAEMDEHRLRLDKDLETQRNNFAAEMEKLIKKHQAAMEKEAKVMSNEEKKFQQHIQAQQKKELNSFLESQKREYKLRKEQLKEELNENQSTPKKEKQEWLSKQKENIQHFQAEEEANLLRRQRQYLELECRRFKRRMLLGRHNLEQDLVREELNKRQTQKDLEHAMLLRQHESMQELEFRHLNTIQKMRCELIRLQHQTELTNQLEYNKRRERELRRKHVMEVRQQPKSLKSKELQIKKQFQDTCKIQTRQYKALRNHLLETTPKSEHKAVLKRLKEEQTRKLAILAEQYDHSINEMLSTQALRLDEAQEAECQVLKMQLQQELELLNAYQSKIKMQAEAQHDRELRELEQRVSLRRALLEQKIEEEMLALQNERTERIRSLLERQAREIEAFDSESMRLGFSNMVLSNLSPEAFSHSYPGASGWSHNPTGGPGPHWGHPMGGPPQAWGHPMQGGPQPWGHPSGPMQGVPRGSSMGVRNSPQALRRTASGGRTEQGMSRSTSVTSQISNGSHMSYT

TBK1 (human) = TBK1 (human) (UniProt Q9UHD2)
Sequence of TBK1 (human) (Q9UHD2 whole entry, looked up): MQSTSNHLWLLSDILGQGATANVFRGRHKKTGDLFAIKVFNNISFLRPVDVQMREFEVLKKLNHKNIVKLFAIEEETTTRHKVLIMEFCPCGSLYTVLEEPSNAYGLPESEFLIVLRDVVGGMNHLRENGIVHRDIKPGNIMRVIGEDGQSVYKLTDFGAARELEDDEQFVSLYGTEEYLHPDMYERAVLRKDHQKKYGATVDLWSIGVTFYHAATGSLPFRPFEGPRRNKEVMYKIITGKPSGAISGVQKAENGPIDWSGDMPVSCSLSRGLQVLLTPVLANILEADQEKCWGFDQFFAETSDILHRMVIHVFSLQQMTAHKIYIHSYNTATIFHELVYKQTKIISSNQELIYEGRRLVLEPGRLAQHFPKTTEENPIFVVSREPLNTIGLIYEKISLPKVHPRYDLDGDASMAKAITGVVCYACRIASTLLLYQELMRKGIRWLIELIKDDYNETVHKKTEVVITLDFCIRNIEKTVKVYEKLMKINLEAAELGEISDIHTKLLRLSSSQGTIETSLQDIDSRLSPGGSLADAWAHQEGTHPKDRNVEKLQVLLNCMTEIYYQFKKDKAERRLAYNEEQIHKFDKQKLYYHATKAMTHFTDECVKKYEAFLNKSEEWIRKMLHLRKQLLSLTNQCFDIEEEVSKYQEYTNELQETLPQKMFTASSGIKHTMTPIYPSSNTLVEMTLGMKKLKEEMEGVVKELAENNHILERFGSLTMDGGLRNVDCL

TGFBR2 (human) = TGFBR2 (human) (UniProt P37173)
TYRO3 (human) = TYRO3 (human) (UniProt Q06418)

For `CS(=O)(=O)CCNCc1ccc(-c2ccc3ncnc(Nc4ccc(OCc5cccc(F)c5)c(Cl)c4)c3c2)o1`, the residual activity (ADRBK1 (human)) was 94.8%, the residual activity (BRSK2 (human)) was 106% and the residual activity (BTK (human)) was 103%. For the same compound, the residual activity (CAMK1 (human)) was 102%, the residual activity (CAMK1D (human)) was 104% and the residual activity (CDC42BPA (human)) was 88.2%. The residual activity (CDK1 CCNA2 (human)) was 101%, the residual activity (CDK1 CCNB1 (human)) was 100% and the residual activity (CDK4 CCND3 (human)) was 104%. For the same compound, the residual activity (CDK6 CCND3 (human)) was 120%, the residual activity (CDK9 CCNT1 (human)) was 85.2% and the residual activity (CSNK1G2 (human)) was 99.5%. The residual activity (CSNK1G3 (human)) was 104%, the residual activity (EPHA5 (human)) was 103% and the residual activity (FGFR2 (human)) was 96.4%. For the same compound, the residual activity (GRK5 (human)) was 97.2%, the residual activity (HCK (human)) was 86.5% and the residual activity (HIPK3 (human)) was 99.1%. The residual activity (IGF1R (human)) was 87.4%, the residual activity (INSR (human)) was 105% and the residual activity (MAP3K14 (human)) was 109%. It also gave a residual activity (MATK (human)) of 75.9%, a residual activity (NTRK2 (human)) of 98.8% and a residual activity (PAK3 (human)) of 105%. For the same compound, the residual activity (PKN1 (human)) was 106%, the residual activity (PLK1 (human)) was 99% and the residual activity (PLK3 (human)) was 105%. For the same compound, the residual activity (PRKCI (human)) was 106%, the residual activity [1] was 72.4% and the residual activity (PRKX (human)) was 111%. The residual activity (RPS6KA5 KD2 (human)) was 98.3%, the residual activity (SIK2 (human)) was 101% and the residual activity (SLK (human)) was 85.1%. It also gave a residual activity (SRPK3 (human)) of 104%, a residual activity (STK17A (human)) of 89.7% and a residual activity (STK33 (human)) of 94.7%. It also gave a residual activity (SYK (human)) of 113%, a residual activity (TAOK1 (human)) of 98.8% and a residual activity (TBK1 (human)) of 103%. The residual activity (TGFBR2 (human)) was 96.1% and the residual activity (TYRO3 (human)) was 98.9%.
`COc1ccc(S(=O)(=O)N(CCO)c2ccccc2CN(C)C/C=C/c2ccc(Cl)cc2)cc1` showed a residual activity (ADRBK1 (human)) of 97.9%, a residual activity (BRSK2 (human)) of 103% and a residual activity (BTK (human)) of 96.4%. For the same compound, the residual activity (CAMK1 (human)) was 105%, the residual activity (CAMK1D (human)) was 103% and the residual activity (CDC42BPA (human)) was 100%. The residual activity (CDK1 CCNA2 (human)) was 96.5%, the residual activity (CDK1 CCNB1 (human)) was 105% and the residual activity (CDK4 CCND3 (human)) was 94.1%. For the same compound, the residual activity (CDK6 CCND3 (human)) was 102%, the residual activity (CDK9 CCNT1 (human)) was 103% and the residual activity (CSNK1G2 (human)) was 103%. It also gave a residual activity (CSNK1G3 (human)) of 98.3%, a residual activity (EPHA5 (human)) of 98.1% and a residual activity (FGFR2 (human)) of 98.6%. For the same compound, the residual activity (GRK5 (human)) was 94.1%, the residual activity (HCK (human)) was 97.8% and the residual activity (HIPK3 (human)) was 104%. It also gave a residual activity (IGF1R (human)) of 103%, a residual activity (INSR (human)) of 103% and a residual activity (MAP3K14 (human)) of 90.8%. It also gave a residual activity (MATK (human)) of 101%, a residual activity (NTRK2 (human)) of 104% and a residual activity (PAK3 (human)) of 102%. For the same compound, the residual activity (PKN1 (human)) was 110%, the residual activity (PLK1 (human)) was 98.8% and the residual activity (PLK3 (human)) was 99.4%. For the same compound, the residual activity (PRKCI (human)) was 97.5%, the residual activity [1] was 110% and the residual activity (PRKX (human)) was 104%. For the same compound, the residual activity (RPS6KA5 KD2 (human)) was 103%, the residual activity (SIK2 (human)) was 97.4% and the residual activity (SLK (human)) was 103%. For the same compound, the residual activity (SRPK3 (human)) was 97.3%, the residual activity (STK17A (human)) was 102% and the residual activity (STK33 (human)) was 97.3%. It also gave a residual activity (SYK (human)) of 101%, a residual activity (TAOK1 (human)) of 103% and a residual activity (TBK1 (human)) of 97.1%. It also gave a residual activity (TGFBR2 (human)) of 97.2% and a residual activity (TYRO3 (human)) of 97.1%.
`Cc1nc(-c2ccccc2)c(-c2ccncc2)o1` gave a residual activity (ADRBK1 (human)) of 100%, a residual activity (BRSK2 (human)) of 95% and a residual activity (BTK (human)) of 98.3%. The residual activity (CAMK1 (human)) was 105%, the residual activity (CAMK1D (human)) was 93.9% and the residual activity (CDC42BPA (human)) was 91.9%. The residual activity (CDK1 CCNA2 (human)) was 94.7%, the residual activity (CDK1 CCNB1 (human)) was 90.8% and the residual activity (CDK4 CCND3 (human)) was 107%. For the same compound, the residual activity (CDK6 CCND3 (human)) was 109%, the residual activity (CDK9 CCNT1 (human)) was 84.6% and the residual activity (CSNK1G2 (human)) was 92.2%. For the same compound, the residual activity (CSNK1G3 (human)) was 104%, the residual activity (EPHA5 (human)) was 91.4% and the residual activity (FGFR2 (human)) was 108%. It also gave a residual activity (GRK5 (human)) of 104%, a residual activity (HCK (human)) of 98.9% and a residual activity (HIPK3 (human)) of 107%. For the same compound, the residual activity (IGF1R (human)) was 99.9%, the residual activity (INSR (human)) was 85.6% and the residual activity (MAP3K14 (human)) was 96.2%. For the same compound, the residual activity (MATK (human)) was 90.3%, the residual activity (NTRK2 (human)) was 103% and the residual activity (PAK3 (human)) was 100%. The residual activity (PKN1 (human)) was 101%, the residual activity (PLK1 (human)) was 104% and the residual activity (PLK3 (human)) was 95.4%. For the same compound, the residual activity (PRKCI (human)) was 101%, the residual activity [1] was 120% and the residual activity (PRKX (human)) was 101%. It also gave a residual activity (RPS6KA5 KD2 (human)) of 107%, a residual activity (SIK2 (human)) of 86.2% and a residual activity (SLK (human)) of 101%. It also gave a residual activity (SRPK3 (human)) of 103%, a residual activity (STK17A (human)) of 99.5% and a residual activity (STK33 (human)) of 99.3%. It also gave a residual activity (SYK (human)) of 99.1%, a residual activity (TAOK1 (human)) of 98.5% and a residual activity (TBK1 (human)) of 88%. For the same compound, the residual activity (TGFBR2 (human)) was 133% and the residual activity (TYRO3 (human)) was 109%.
